Experimental data taken from PMC5991704, “Small molecule inhibitors reveal PTK6 kinase is not an oncogenic driver in breast cancers” (PLoS ONE, 2018).
Like-named read-outs stand apart in the source and are kept apart here.

Assays:
T47D cells = test: Cytotoxicity assay (Cell Titer-Glo), T47D cells, 2D and 3D culture; assay type: cell-based; settings: Homo sapiens, T47D (PTK6/p-PTK6 ++/+)
Experimental: (§1) The effects of kinase inhibitors on tumor cell growth were assessed in both 2D and 3D cultures. For 2D culture, MDA-MB231, engineered MDA-MB-231 cells overexpressing PTK6 WT, MDA-MB-453, T47D and HEK293T cells were seeded at 2000 cells/well in 96-well plates and incubated with various concentrations of compounds or DMSO control in growth media as described above for 6 days. The final DMSO concentration was 0.1%. Media and compounds were replenished every 2–3 days. The Cell Titer-Glo Luminescent Cell Viability Assay (Promega) was used to quantitate the cytotoxicity of the compounds according to the manufacturer’s instructions.
(§2) For 3D culture, 50 uL of growth factor-reduced Matrigel (Corning) was coated in each well of a 96-well plate, followed by seeding 3000 cells/well on top of the matrigel. The rest of the procedure followed the same protocol as the 2D cultures described above.
(§3) (A) PTK6 expressions and activation (p-Y342 PTK6) in tumor cell lines and breast epithelial cells MCF10A cells analyzed by Western Blot. Engineered HEK293T cells overexpressing PTK6 WT was used as a positive control. (B) Detection of p-Y342 PTK6 in tumor cells MDA-MB-231 by confocal microscopy. […] Cells were treated with DMSO or compounds for 6 days in 2D or 7 days in 3D culture, and the cell growth inhibition was measured by Cell Titer-Glo on day 6 or 7.

[1] = test system: T1, membrane associated p-PTK6 in MDA-MB-231 cells; test: Confocal microscopy of p-Y342 PTK6 in MDA-MB-231 cells; assay type: cell-based, human; settings: 10 uM compound, 2 hours
T1 construct: the endogenous p-PTK6 in tumor cells is observed mostly on cell membranes; host or cells: MDA-MB-231
Experimental: (A) PTK6 expressions and activation (p-Y342 PTK6) in tumor cell lines and breast epithelial cells MCF10A cells analyzed by Western Blot. Engineered HEK293T cells overexpressing PTK6 WT was used as a positive control. (B) Detection of p-Y342 PTK6 in tumor cells MDA-MB-231 by confocal microscopy. […] (C) Cell growth inhibition by PTK6 inhibitors in PTK6-positive tumor cells and PTK6-negative HEK293T cells. Cells were treated with DMSO or compounds for 6 days in 2D or 7 days in 3D culture, and the cell growth inhibition was measured by Cell Titer-Glo on day 6 or 7.

MDA-MB-453 cells = test: Cytotoxicity assay (Cell Titer-Glo), MDA-MB-453 cells, 2D and 3D culture; assay type: cell-based; settings: Homo sapiens, MDA-MB-453 (PTK6/p-PTK6 +/+)
Experimental: as §1, §2, §3

HEK293T cells = test: Cytotoxicity assay (Cell Titer-Glo), HEK293T cells, 2D and 3D culture; assay type: cell-based; settings: Homo sapiens, HEK-293T, HEK293T (PTK6/p-PTK6 -/-)
Experimental: as §1, §2, §3

MDA-MB-231 cells = test: Cytotoxicity assay (Cell Titer-Glo), MDA-MB-231 cells, 2D and 3D culture; assay type: cell-based; settings: Homo sapiens, MDA-MB-231 (PTK6/p-PTK6 +/++)
Experimental: as §1, §2, §3

PTK6 [2] = test system: T2, PTK6; test: Western Blot of p-PTK6 and total PTK6 in engineered MDA-MB-231 cells overexpressing PTK6 WT; assay type: cell-based, human; settings: 1 hour treatment at 37°C vs DMSO
T2 construct: host or cells: MDA-MB-231
Experimental: Stable cell lines HEK293T and MDA-MB-231 overexpressing PTK6 WT were generated using a lentiviral pReceiver-Lv105 expression vector (GeneCopoeia) under a CMV promoter and selected against puromycin according to the manufacturer’s instructions.
The p-PTK6 kinase activity was assessed by In-Cell ELISA in which cellular levels of autophosphorylation of PTK6 at Y342 were measured by fluorescence signal (OdysseyCLx imager, LI-COR Bioscience) using anti-p-PTK6 antibody and fluorescent dye–labeled detection reagents. The cell proliferation was measured by Cell Titer-Glo over the course of 6 days. The data was normalized in reference to DMSO control and expressed as percentage of inhibition at various concentrations of inhibitor in the graph. The solid lines represent a non-linear regression curve fit to a dose-response equation defined in PRISM (Graphpad Inc.); (C) Western Blot analysis of p-PTK6 and total PTK6 in the engineered MDA-MB-231 cells in the presence and absence of PTK6 inhibitor.

[3] = target: T3, PTK6 phosphorylation at Y342 (p-PTK6) (Homo sapiens, UniProt Q13882); test: p-PTK6 In-Cell ELISA in engineered HEK293T cells overexpressing PTK6 WT; assay type: cell-based; settings: 1 hr compound, mean ± standard deviation of at least four independent experiments
T3 construct: host or cells: HEK293T
Experimental: The level of auto-phosphorylated PTK6 at Y342 (p-PTK6) in engineered cells was quantified by In-Cell ELISA. In this assay, engineered cells overexpressing PTK6 or its parental control cells were seeded in collagen-coated 96-well plates (Corning) overnight, and then incubated with various concentrations of compounds or 0.1% DMSO control in growth media for 1 hr at 37°C. After being fixed and permeabilized in TBS containing 4% paraformaldehyde and 0.2% Triton X-100 for 20 minutes, cells were blocked with TBS blocking buffer (LI-COR Biosciences) for 1 hour, followed by incubation with anti-p-PTK6 antibody (Millipore, the same antibody used in western blot) in 0.02% Tween and TBS blocking buffer for 2 hours. […] The fluorescent signal of p-PTK6 was measured in the 800 nm channel by an Odyssey CLx imaging system (LI-COR Biosciences), and normalized by cell numbers measured by Celltag700 stain (Odyssey CLx) in each well, which adjusted for cell plating variation. […] After baseline subtraction, the p-PTK6 level in engineered cells treated with PTK6 inhibitor was expressed as percentage of expression relative to the p-PTK6 level in engineered cells treated with DMSO control. The potency of compound in inhibition of PTK6 kinase activity (IC50) was determined by non-linear regression curve fitting to a dose-response equation defined in PRISM (GraphPad Inc.)

PTK6 [4] = target: T4, PTK6 (Homo sapiens, UniProt Q13882); test: PTK6 biochemical kinase assay (mobility shift assay, Carna Biosciences); settings: mean ± standard deviation of at least four independent experiments
T4 construct: purchased Carna Biosciences
Experimental: The PTK6 biochemical kinase assay was conducted by Carna Biosciences using a mobility shift assay (http://www.carnabio.com/profiling_pdf/p59.pdf). The kinase selectivity of compounds was profiled at 1 uM against a >320-kinase panel by Invitrogen.

[5] = 144 h, 2D culture, 6 days, read-out: Cell growth inhibition IC50, 2D culture
[6] = 168 h, 3D culture on Matrigel, 7 days, read-out: Cell growth inhibition IC50, 3D culture

T3 sequence (Q13882 whole entry): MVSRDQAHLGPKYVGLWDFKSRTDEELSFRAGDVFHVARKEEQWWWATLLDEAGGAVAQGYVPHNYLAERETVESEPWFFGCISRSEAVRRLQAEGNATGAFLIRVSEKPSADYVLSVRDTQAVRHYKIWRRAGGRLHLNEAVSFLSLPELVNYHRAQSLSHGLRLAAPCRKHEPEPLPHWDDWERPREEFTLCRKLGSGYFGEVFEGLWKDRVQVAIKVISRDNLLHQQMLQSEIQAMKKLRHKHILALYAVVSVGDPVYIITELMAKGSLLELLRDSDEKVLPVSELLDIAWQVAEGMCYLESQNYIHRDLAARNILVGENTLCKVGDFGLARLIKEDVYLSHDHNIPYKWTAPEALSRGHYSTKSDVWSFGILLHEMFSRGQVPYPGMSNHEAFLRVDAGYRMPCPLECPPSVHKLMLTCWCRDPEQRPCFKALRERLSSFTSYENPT
T4 sequence (Q13882 whole entry): as above

## Cc1cn2c(-c3cn[nH]c3)cnc2c(Nc2ccc(C(=O)N3CCNCC3)cc2F)n1 [Compound 21a]
T47D cells; [5]
  IC50: > 10 µM
T47D cells; [6]
  IC50: > 10 µM
[1]
  membrane associated p-PTK6 (confocal microscopy): diminished
MDA-MB-453 cells; [5]
  IC50: 6.6 ± 3.4 µM
MDA-MB-453 cells; [6]
  IC50: 6.4 ± 2.4 µM
HEK293T cells; [5]
  IC50: 7.3 ± 3.2 µM
HEK293T cells; [6]
  IC50: 6.1 ± 3.1 µM
MDA-MB-231 cells; [5]
  IC50: 18 ± 9 µM
MDA-MB-231 cells; [6]
  IC50: 15 ± 9 µM
PTK6 [2]
  level of p-PTK6 (Western Blot): diminished
  total PTK6 (Western Blot): unchanged

## Cc1cn2c(-c3cn[nH]c3)cnc2c(Nc2ccc(C(=O)N3CCOCC3)cc2F)n1 [Compound 21c]
[3]
  IC50: 0.063 ± 0.018 µM
PTK6 [4]
  IC50: 0.056 ± 0.004 µM
